Experimental findings from patent US9403850B2, “Beta-lactamase inhibitors” (priority 2013, dated 2016) are described below.

Read-outs that look alike come from different tables or passages of the source. A value given as a limit tells only on which side of the number the result lay.

In one assay the target is T1, VIM-2 (Escherichia coli, UniProt Q5U7L7).
T1 construct: made in house; host or cells: E. coli BL21(DE3)
The experiment in a line: β-Lactamase enzyme inhibition assay, VIM-2 (nitrocefin substrate). Type of assay: biochemical. The method, then: For Vim-2 metallo β-lactamase, the procedure was identical with the following exceptions, first the protein was not pH adjusted to pH 5 with 50 mM sodium acetate, second, the chromatography step was changed to a 5 ml Q sepharose anion exchange column pre-equilibrated with 50 mM Hepes pH 7.5, and elution of the protein was achieved by a linear gradient of NaCl (0-600 mM). Finally, the VIM-2 purification required a second run (3rd step) on the Q sepharose anion exchange column to achieve acceptable purity (>90%).
An equal volume of diluted enzyme stock was added, and the plates were incubated at 37° C. for 15 min. Nitrocefin was used as substrate for p99 AmpC, VIM-2 and OXA-1 and dispensed into each well at a final concentration of 100 μM. Absorbance at 486 nm was immediately monitored for 10 min using a Biotek Powerwave XS2 microplate spectrophotometer using the GEN5 softweare package (Biotek Instruments, Winooski Vt.). In an analogous fashion, imipenem was used as substrate for Kpc-2 and Cefotaxime was used for SHV-5, while changes in absorbance upon hydrolysis of the β-lactam ring were monitored at 300 nm and 260 nm respectively in UV-transparent 96-well microtiter assay plates. Maximum rates of hydrolysis were compared to those in control wells (without inhibitors), and percentages of enzyme inhibition were calculated for each concentration of inhibitor. The concentration of inhibitor needed to reduce the initial rate of hydrolysis of substrate by 50% (IC50) was calculated as the residual activity of β-lactamase at 486 nm using GraFit version 7 kinetics software package (Erithacus Software, Surrey, UK).
Using the methodology described above, examples of the current invention were evaluated for their ability to inhibit β-lactamase enzymes from all four Ambler classifications (A through D). […] NT=Not tested.

For assay [1], the system named is E. coli ESBL4 expressing CTX-M-15. Put plainly: Broth microdilution MIC assay, partner ceftazidime.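 Note: ceftazidime held fixed at 4 µg/mL.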 Particulars: Escherichia coli, read-out: MIC of Exemplary Compounds in presence of fixed β-lactams, Fixed CAZ, E. coli ESBL4 CTX-M-15. Type of assay: cell-based. For orientation: In broth dilution the organism is exposed to a series of concentrations in liquid medium.

For assay [2], the system named is E. cloacae 144200 expressing Class C P99 AmpC. The experiment in a line: Broth microdilution MIC assay, partner ceftazidime.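 Note: ceftazidime held fixed at 4 µg/mL.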 Type of assay: cell-based. Particulars: Enterobacter cloacae, read-out: MIC of Exemplary Compounds in presence of fixed β-lactams, Fixed CAZ, E. cl. 144200 p99 AmpC.
In assay [3] the test system is K. pneumoniae 156319 expressing KPC-3. The experiment in a line: Broth microdilution MIC assay, partner meropenem. Type of assay: cell-based. Particulars: Klebsiella pneumoniae, read-out: MIC of Exemplary Compounds in presence of fixed β-lactams, Fixed Mero, K.P. 156319 KPC-3.
In assay [4] the test system is P. aeruginosa Ps296 expressing VIM-2. Put plainly: Broth microdilution MIC assay, partner meropenem. Type of assay: cell-based. The note with it: Pseudomonas aeruginosa, read-out: MIC of Exemplary Compounds in presence of fixed β-lactams, Fixed Mero, P. aerug. Ps296 VIM-2.
Assay [5] concerns K. pneumoniae A-1797 expressing KPC-2 and VIM-4. Put plainly: Broth microdilution MIC assay, partner meropenem. Type of assay: cell-based. Particulars: Klebsiella pneumoniae, read-out: MIC of Exemplary Compounds in presence of fixed β-lactams, Fixed Mero, K.P. A-1797 KPC-2 VIM-4.
Assay [6] concerns S. aureus MSSA-7 producing penicillinase PC-1. Put plainly: Broth microdilution MIC assay, partner piperacillin. Type of assay: cell-based. The note with it: Staphylococcus aureus, read-out: MIC of Exemplary Compounds in presence of fixed β-lactams, Fixed Pip, S. aureus MSSA-7 PC-1.
Setting [7] is: nitrocefin substrate 100 μM, 15 min preincubation at 37° C., read-out: IC50, Class B VIM-2.

A word on the IC50: it is the concentration that inhibits the measured activity by half. The MIC is the lowest concentration found to suppress growth. On to `O=C(O)c1cccc2c1OB(O)[C@@H](NC(=O)C1(c3ccccc3)CC1)C2` [Example 1, (R)-2-hydroxy-3-(1-phenylcyclopropanecarboxamido)-3,4-dihydro-2H-benzo[e][1,2]oxaborinine-8-carboxylic acid], for which the 50% inhibitory concentration (IC50) on VIM-2 (setting [7]) is 100 to 1000 nM. Also, the MIC is less than 4 µg/mL in assay [1], less than 4 µg/mL in assay [2], 8 to 32 µg/mL in assay [3] and 8 to 32 µg/mL in assay [4].
Take `O=C(O)c1cccc2c1OB(O)[C@@H](NC(=O)C(F)(F)c1ccccc1)C2` [Example 2, (R)-3-(2,2-difluoro-2-phenylacetamido)-2-hydroxy-3,4-dihydro-2H-benzo[e][1,2]oxaborinine-8-carboxylic acid]: the IC50 on VIM-2 (setting [7]) was in the range of 1000 to 10000 nM. The MIC is less than 4 µg/mL in assay [1]; less than 4 µg/mL in assay [2]; 8 to 32 µg/mL in assay [3]; 8 to 32 µg/mL in assay [4]; greater than 32 µg/mL in assay [5]; less than 4 µg/mL in assay [6] (fixed piperacillin 4 μg/mL).
On to `O=C(O)c1cccc2c1OB(O)[C@@H](NC(=O)C1(c3ccccc3)CCNCC1)C2` [Example 3, (R)-2-hydroxy-3-(4-phenylpiperidine-4-carboxamido)-3,4-dihydro-2H-benzo[e][1,2]oxaborinine-8-carboxylic acid], for which the IC50 against VIM-2 lay in the range of 1000 to 10000 nM. For the same compound, the MIC in assay [1] was less than 4 µg/mL; in assay [2] it was less than 4 µg/mL; in assay [3] it was less than 4 µg/mL; in assay [4], 8 to 32 µg/mL; in assay [5] it was greater than 32 µg/mL; in assay [6], greater than 32 µg/mL.
On to `O=C(N[C@H]1Cc2cccc(C(=O)O)c2OB1O)c1csc2c1CCNC2` [Example 4, (R)-2-hydroxy-3-(4,5,6,7-tetrahydrothieno[2,3-c]pyridine-3-carboxamido)-3,4-dihydro-2H-benzo[e][1,2]oxaborinine-8-carboxylic acid], for which the IC50 at VIM-2 (setting [7]) is 100 to 1000 nM. For the same compound, the MIC in assay [1] was less than 4 µg/mL; in assay [2] it was less than 4 µg/mL; in assay [3] it was less than 4 µg/mL; in assay [4] it was greater than 32 µg/mL; in assay [5], less than 4 µg/mL; in assay [6] (fixed piperacillin 4 μg/mL), less than 4 µg/mL.
For `O=C(N[C@H]1Cc2cccc(C(=O)O)c2OB1O)c1ccc2c(c1)CCNC2` [Example 5, (R)-3-(2-borono-2-(1,2,3,4-tetrahydroisoquinoline-6-carboxamido)ethyl)-2-hydroxybenzoic acid], the IC50 on VIM-2 (setting [7]) is 100 to 1000 nM. The MIC in assay [1] is less than 4 µg/mL; in assay [2], less than 4 µg/mL; in assay [3] it was less than 4 µg/mL; in assay [4], greater than 32 µg/mL; in assay [5], less than 4 µg/mL; in assay [6] (fixed piperacillin 4 μg/mL), less than 4 µg/mL.
As to `CN1CCc2c(C(=O)N[C@H]3Cc4cccc(C(=O)O)c4OB3O)csc2C1` [Example 6, (R)-2-hydroxy-3-(6-methyl-4,5,6,7-tetrahydrothieno[2,3-c]pyridine-3-carboxamido)-3,4-dihydro-2H-benzo[e][1,2]oxaborinine-8-carboxylic acid], the concentration for half-maximal inhibition (IC50) at VIM-2 (setting [7]) fell in the range of 1000 to 10000 nM. Also, the MIC is less than 4 µg/mL in assay [1]; less than 4 µg/mL in assay [2]; less than 4 µg/mL in assay [3]; greater than 32 µg/mL in assay [4]; 8 to 32 µg/mL in assay [5]; less than 4 µg/mL in assay [6] (fixed piperacillin 4 μg/mL).
With `CN1CCc2cc(C(=O)N[C@H]3Cc4cccc(C(=O)O)c4OB3O)ccc2C1` [Example 7, (R)-2-hydroxy-3-(2-methyl-1,2,3,4-tetrahydroisoquinoline-6-carboxamido)-3,4-dihydro-2H-benzo[e][1,2]oxaborinine-8-carboxylic acid], the IC50 on VIM-2 (setting [7]) lay in the range of 100 to 1000 nM. The MIC in assay [1] is less than 4 µg/mL; in assay [2] it was less than 4 µg/mL; in assay [3], 8 to 32 µg/mL; in assay [4], greater than 32 µg/mL; in assay [5], less than 4 µg/mL; in assay [6] (fixed piperacillin 4 μg/mL) it was less than 4 µg/mL.
As for `O=C(O)c1cccc2c1OB(O)[C@@H](NC(=O)c1c[nH]c3ncccc13)C2` [Example 8, (R)-2-hydroxy-3-(1H-pyrrolo[2,3-b]pyridine-3-carboxamido)-3,4-dihydro-2H-benzo[e][1,2]oxaborinine-8-carboxylic acid], the IC50 at VIM-2 (setting [7]) is 1000 to 10000 nM. Moreover, the MIC in assay [1] is less than 4 µg/mL; in assay [2], less than 4 µg/mL; in assay [3], greater than 32 µg/mL; in assay [4], less than 4 µg/mL; in assay [5], greater than 32 µg/mL; in assay [6] (fixed piperacillin 4 μg/mL) it was less than 4 µg/mL.
On to `O=C(N[C@H]1Cc2cccc(C(=O)O)c2OB1O)c1ccc2c(c1)CNC2` [Example 9, (R)-2-hydroxy-3-(isoindoline-5-carboxamido)-3,4-dihydro-2H-benzo[e][1,2]oxaborinine-8-carboxylic acid], for which the half-inhibitory concentration (IC50) at VIM-2 (setting [7]) is less than 100 nM. Further, the MIC in assay [1], in assay [2], in assay [3], in assay [4], in assay [5] and in assay [6] (fixed piperacillin 4 μg/mL) was less than 4 µg/mL in each case.
With `CN1Cc2ccc(C(=O)N[C@H]3Cc4cccc(C(=O)O)c4OB3O)cc2C1` [Example 10, (R)-2-hydroxy-3-(2-methylisoindoline-5-carboxamido)-3,4-dihydro-2H-benzo[e][1,2]oxaborinine-8-carboxylic acid], the 50% inhibitory concentration (IC50) on VIM-2 (setting [7]) was less than 100 nM. Further, the MIC in assay [1] is less than 4 µg/mL; in assay [2], less than 4 µg/mL; in assay [3], less than 4 µg/mL; in assay [4], 8 to 32 µg/mL; in assay [5], less than 4 µg/mL; in assay [6] (fixed piperacillin 4 μg/mL), less than 4 µg/mL.
`NCCN1Cc2ccc(C(=O)N[C@H]3Cc4cccc(C(=O)O)c4OB3O)cc2C1` [Example 11, (R)-3-(2-(2-aminoethyl)isoindoline-5-carboxamido)-2-hydroxy-3,4-dihydro-2H-benzo[e][1,2]oxaborinine-8-carboxylic acid]: on VIM-2 (setting [7]), the half-maximal inhibitory concentration (IC50) is 100 to 1000 nM. The MIC in assay [1] was less than 4 µg/mL; in assay [2], less than 4 µg/mL; in assay [3], less than 4 µg/mL; in assay [4] it was greater than 32 µg/mL; in assay [5], less than 4 µg/mL; in assay [6] (fixed piperacillin 4 μg/mL) it was less than 4 µg/mL.
Take `O=C(N[C@H]1Cc2cccc(C(=O)O)c2OB1O)c1ccc2c(c1)CN(Cc1cccnc1)C2` [Example 12, (R)-2-hydroxy-3-(2-(pyridin-3-ylmethyl)isoindoline-5-carboxamido)-3,4-dihydro-2H-benzo[e][1,2]oxaborinine-8-carboxylic acid]: on VIM-2 (setting [7]), the IC50 lay within 100 to 1000 nM. In addition, the MIC in assay [1] was 8 to 32 µg/mL; in assay [2] it was less than 4 µg/mL; in assay [3] it was 8 to 32 µg/mL; in assay [4], greater than 32 µg/mL; in assay [5], 8 to 32 µg/mL; in assay [6] (fixed piperacillin 4 μg/mL) it was less than 4 µg/mL.
For `O=C(Cc1cnc2c(c1)CCCN2)N[C@H]1Cc2cccc(C(=O)O)c2OB1O` [Example 13, (R)-2-hydroxy-3-(2-(5,6,7,8-tetrahydro-1,8-naphthyridin-3-yl)acetamido)-3,4-dihydro-2H-benzo[e][1,2]oxaborinine-8-carboxylic acid], on VIM-2 (setting [7]), the IC50 lay in the range of 1000 to 10000 nM. The minimal inhibitory concentration (MIC) in assay [1] is less than 4 µg/mL; in assay [2], less than 4 µg/mL; in assay [3], less than 4 µg/mL; in assay [4], 8 to 32 µg/mL; in assay [5], 8 to 32 µg/mL; in assay [6] (fixed piperacillin 4 μg/mL), less than 4 µg/mL.
`NCc1ccc(C(=O)N[C@H]2Cc3cccc(C(=O)O)c3OB2O)cc1CN` [Example 14, (R)-3-(3,4-bis(aminomethyl)benzamido)-2-hydroxy-3,4-dihydro-2H-benzo[e][1,2]oxaborinine-8-carboxylic acid]: the IC50 on VIM-2 (setting [7]) is less than 100 nM. Further, the minimal inhibitory concentration (MIC) in assay [1], in assay [2], in assay [3], in assay [4], in assay [5] and in assay [6] (fixed piperacillin 4 μg/mL) was less than 4 µg/mL in each case.
